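Here, GI50 denotes the concentration required for 50% inhibition of growth. The concentration for full growth arrest is given as TGI.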
Experiments:
Experiment in all cases: NCI tumour cell line growth inhibition, 384-well format
[1] = system: 786-0 renal
[2] = system: A498 renal
[3] = system: A549 NSCLC
[4] = system: ACHN renal
[5] = system: BT-549 breast
[6] = system: CAKI-1 renal
[7] = system: CCRF-CEM leukemia
[8] = system: COLO 205 colon
[9] = system: DU-145 prostate
[10] = system: EKVX NSCLC
[11] = system: HCC-2998 colon
[12] = system: HCT-116 colon
[13] = system: HCT-15 colon
[14] = system: HL-60(TB) leukemia
[15] = system: HOP-62 NSCLC
[16] = system: HOP-92 NSCLC
[17] = system: HS 578T breast
[18] = system: HT29 colon
[19] = system: IGROV1 ovarian
[20] = system: KM12 colon
[21] = system: LOX IMVI melanoma
[22] = system: M14 melanoma
[23] = system: MALME-3M melanoma
[24] = system: MCF7 breast
[25] = system: MDA-MB-231 breast
[26] = system: MDA-MB-435 melanoma
[27] = system: MDA-MB-468 breast
[28] = system: MOLT-4 leukemia
[29] = system: NCI-H226 lung
[30] = system: NCI-H23 lung
[31] = system: NCI-H322M lung
[32] = system: NCI-H460 NSCLC
[33] = system: NCI-H522 lung
[34] = system: NCI/ADR-RES ovarian
[35] = system: OVCAR-3 ovarian
[36] = system: OVCAR-4 ovarian
[37] = system: OVCAR-5 ovarian
[38] = system: OVCAR-8 ovarian
[39] = system: PC-3 prostate
[40] = system: RPMI-8226 leukemia
[41] = system: RXF 393 renal
[42] = system: SF-268 CNS
[43] = system: SF-295 CNS
[44] = system: SF-539 CNS
[45] = system: SK-MEL-28 melanoma
[46] = system: SK-MEL-5 melanoma
[47] = system: SK-OV-3 ovarian
[48] = system: SN12C renal
[49] = system: SNB-19 CNS
[50] = system: SNB-75 CNS
[51] = system: SR leukemia
[52] = system: SW-620 colon
[53] = system: T-47D breast
[54] = system: TK-10 renal
[55] = system: U251 glioblastoma
[56] = system: UACC-257 melanoma
[57] = system: UACC-62 melanoma
[58] = system: UO-31 renal

## COc1cc(Nc2c(C#N)cnc3cc(OCCCN4CCN(C)CC4)c(OC)cc23)c(Cl)cc1Cl
[1]
  GI50: 764 nM
  TGI: 2580 nM
[2]
  GI50: 806 nM
  TGI: 3.61 µM
[3]
  GI50: 1600 nM
  TGI: 4.64 µM
[4]
  GI50: 443 nM
  TGI: 4.05 µM
[5]
  GI50: 1210 nM
  TGI: 3.31 µM
[6]
  GI50: 431 nM
  TGI: 2090 nM
[7]
  GI50: 2040 nM
  TGI: 3.64 µM
[8]
  GI50: 2010 nM
  TGI: 5.45 µM
[9]
  GI50: 645 nM
  TGI: 2850 nM
[10]
  GI50: 1570 nM
  TGI: 5.85 µM
[11]
  GI50: 2200 nM
  TGI: 4.35 µM
[12]
  GI50: 1150 nM
  TGI: 2570 nM
[13]
  GI50: 1140 nM
  TGI: 3.74 µM
[14]
  GI50: 1390 nM
  TGI: 2720 nM
[15]
  GI50: 1690 nM
  TGI: 5.02 µM
[16]
  GI50: 1100 nM
  TGI: 2790 nM
[17]
  GI50: 1290 nM
  TGI: 4.24 µM
[18]
  GI50: 1430 nM
  TGI: 3.59 µM
[19]
  GI50: 146 nM
  TGI: 899 nM
[20]
  GI50: 448 nM
  TGI: 4.03 µM
[21]
  GI50: 637 nM
  TGI: 2130 nM
[22]
  GI50: 1160 nM
  TGI: 2490 nM
[23]
  GI50: 1040 nM
  TGI: 2470 nM
[24]
  GI50: 2400 nM
  TGI: 5.38 µM
[25]
  GI50: 1410 nM
  TGI: 2760 nM
[26]
  GI50: 2120 nM
  TGI: 5.43 µM
[27]
  GI50: 998 nM
  TGI: 2660 nM
[28]
  GI50: 612 nM
  TGI: 2000 nM
[29]
  GI50: 2770 nM
  TGI: 6.25 µM
[30]
  GI50: 1690 nM
  TGI: 4.26 µM
[31]
  GI50: 423 nM
  TGI: 2360 nM
[32]
  GI50: 1620 nM
  TGI: 5.14 µM
[33]
  GI50: 133 nM
  TGI: 2780 nM
[34]
  GI50: 2140 nM
  TGI: 4.66 µM
[35]
  GI50: 1490 nM
  TGI: 5.02 µM
[36]
  GI50: 1850 nM
  TGI: 4.18 µM
[37]
  GI50: 1840 nM
  TGI: 6.66 µM
[38]
  GI50: 1940 nM
  TGI: 5.02 µM
[39]
  GI50: 2580 nM
  TGI: 7.12 µM
[40]
  GI50: 898 nM
  TGI: 2350 nM
[41]
  GI50: 368 nM
  TGI: 1460 nM
[42]
  GI50: 1850 nM
  TGI: 5.52 µM
[43]
  GI50: 2680 nM
  TGI: 5.77 µM
[44]
  GI50: 1550 nM
  TGI: 2990 nM
[45]
  GI50: 1560 nM
  TGI: 2980 nM
[46]
  GI50: 1240 nM
  TGI: 2540 nM
[47]
  GI50: 416 nM
  TGI: 4.21 µM
[48]
  GI50: 301 nM
  TGI: 4.14 µM
[49]
  GI50: 3.51 µM
  TGI: 9.26 µM
[50]
  GI50: 951 nM
  TGI: 3.32 µM
[51]
  GI50: 1370 nM
  TGI: 2680 nM
[52]
  GI50: 2620 nM
  TGI: 5.86 µM
[53]
  GI50: 1340 nM
  TGI: 5.41 µM
[54]
  GI50: 584 nM
  TGI: 3.52 µM
[55]
  GI50: 2100 nM
  TGI: 4.7 µM
[56]
  GI50: 1610 nM
  TGI: 2980 nM
[57]
  GI50: 1440 nM
  TGI: 2880 nM
[58]
  GI50: 476 nM
  TGI: 2560 nM
